Laboratory results reported in patent US10183947B2, “Pyrazole derivatives useful as 5-lipoxygenase activating protein (FLAP) inhibitors” (ASTRAZENECA AB, priority 2015, dated 2019).
Like-named read-outs stand apart in the source and are kept apart here.

Tests used:
[1] = tested on: LTB4 production in fresh human whole blood; assay: FLAP Whole Blood Assay (Test B), inhibition of LTB4 production; assay type: cell-based; settings: then calcium ionophore A23187, LTB4 by EIA
Protocol: FLAP Whole Blood Assay (Test B)
Compounds were tested for the inhibition of LTB4 production in fresh human whole blood obtained by venapuncture using heparin to prevent clotting. 1.5 μL compounds or DMSO carrier were dispensed into the wells of a 96-well deep-well plate in 3-fold dilution series. 500 μL hepamised whole blood was then added followed by incubation at 37° C. for 30 min (method A) or 4 h (method B). 100 μL blood was subsequently transferred in triplicate to pre-dispensed 0.5 μL 2 mM calcium ionophore (calcimycin; A23187) in a second 96-well plate. Following incubation at 37° C. for 20 min, the assays were stopped by adding 10 μL of stop solution (100 mM EGTA, pH 7.4) and the plate was transferred to ice. The plate was centrifuged at 3000 rpm at 4° C. for 10 min and […] was transferred to a fresh 96 well plate containing 90 μL pre-dispensed EIA assay buffer (0.1 M phosphate buffer+0.1% BSA). LTB4 was then measured using reagents from a commercial EIA (Cayman Chemicals). LTB4 production was defined as the LTB4 level in the presence of a given concentration of test compound minus the LTB4 level in the presence of 50 nM 5-[[4-[(2S,4R)-4-hydroxy-2-methyl-tetrahydropyran-4-yl]-2-thienyl]sulfanyl]-1-methyl-indolin-2-one. (Preparation of 5-[[4-[(2S,4R)-4-hydroxy-2-methyl-tetrahydropyran-4-yl]-2-thienyl]sulfanyl]-1-methyl-indolin-2-one was described in Org. Process Res. Dev., 2005, 9, 555-569 or EP623614 B1). Inhibition of LTB4 production was defined as the LTB4 level in the presence of a given concentration of test compound expressed as a % of the LTB4 level in the presence of DMSO. IC50 values were determined by plotting % inhibition versus log compound concentration and using a one site dose response model.

[2] = target: FLAP (human ALOX5AP expressed in COS-7 cell membranes) (Homo sapiens (Human), UniProt P20292); assay: FLAP Binding Assay (Test A), competition binding with 3H-MK591 as tracer; settings: competition with 3H-MK591 (2 nM), membranes from COS-7 cells expressing human ALOX5AP, 60 min at rt
FLAP (human ALOX5AP expressed in COS-7 cell membranes), sequence (P20292 whole entry): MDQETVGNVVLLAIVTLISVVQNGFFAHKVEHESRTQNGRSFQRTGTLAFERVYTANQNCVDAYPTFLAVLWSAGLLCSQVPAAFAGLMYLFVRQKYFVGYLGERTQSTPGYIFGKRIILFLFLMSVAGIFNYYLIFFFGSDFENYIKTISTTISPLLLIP
Protocol: FLAP Binding Assay (Test A) Compounds were tested in a competition binding assay using ^3H-MK591 as tracer. […] Med. Chem. […] A 100,000×g pellet from COS-7 cells stably transfected with a plasmid expressing human ALOX5AP was the source of FLAP. […] Following filtration, filter plates were dried 12 h at RT (or 50° C. for 1 hour). 50 μL scintillant was then added, the filterplates were sealed and radioactivity was measured in a microbeta counter. Specific binding was defined as total binding minus non-specific binding. Total binding was defined as ^3H-MK591 bound to membranes in the absence of competitor, non-specific binding was defined as ^3H-MK591 in the presence of 0.1 mM MK-591. IC50 values were determined by plotting % inhibition versus log compound concentration and using a one site dose response model.

[3] = method B: compound incubated with human whole blood at 37° C. for 4 h, read-out: IC50 nM (method B)
[4] = 0.5 h, method A: compound incubated with human whole blood at 37° C. for 30 min, read-out: IC50 nM (method A)

## Cn1ncc(NC(=O)C2CCCCC2C(=O)c2ccc(-c3ccn[nH]3)cc2F)c1C(N)=O (single isomer, unassigned) [Example 34, 4-[({(1R,2R or 1S,2S)-2-[2-Fluoro-4-(1H-pyrazol-5-yl)benzoyl]-cyclohexyl}carbonyl)amino]-1-methyl-1H-pyrazole-5-carboxamide]
[1]; [3]
  IC50: 41 nM
[2]
  IC50: 0.041 µM

## Cn1cc(NC(=O)C2CCCCC2C(=O)c2ccc(-c3ccn[nH]3)cc2F)c(C(N)=O)n1 (single isomer, unassigned) [Example 35, 4-[({(1R,2R or 1S,2S)-2-[2-Fluoro-4-(1H-pyrazol-5-yl)benzoyl]-cyclohexyl}carbonyl)amino]-1-methyl-1H-pyrazole-3-carboxamide]
[1]; [3]
  IC50: 79 nM
[2]
  IC50: 0.083 µM

## Cc1cc(-c2ccc(C(=O)C3CCCCC3C(=O)Nc3cnn(C)c3C(N)=O)c(F)c2)[nH]n1 (single isomer, unassigned) [Example 37, 4-[({(1R,2R or 1S,2S)-2-[2-Fluoro-4-(3-methyl-1H-pyrazol-5-yl)benzoyl]-cyclohexyl}carbonyl)amino]-1-methyl-1H-pyrazole-5-carboxamide]
[1]; [3]
  IC50: 40 nM
[2]
  IC50: 0.027 µM

## Cc1cc(-c2ccc(C(=O)C3CCCCC3C(=O)Nc3cn[nH]c3C(N)=O)c(F)c2)[nH]n1 (single isomer, unassigned) [Example 38, 4-[({(1R,2R or 1S,2S)-2-[2-Fluoro-4-(3-methyl-1H-pyrazol-5-yl)benzoyl]cyclohexyl}carbonyl)amino]-1H-pyrazole-5-carboxamide]
[1]; [3]
  IC50: 69 nM
[2]
  IC50: 0.02 µM

## Cc1cc(-c2ccc(C(=O)C3CCCCC3C(=O)Nc3cnn4c3C(=O)NCC4)c(F)c2)[nH]n1 (single isomer, unassigned) [Example 39, (1R,2R or 1S,2S)-2-[2-Fluoro-4-(3-methyl-1H-pyrazol-5-yl)benzoyl]-N-(4-oxo-4,5,6,7-tetrahydropyrazolo[1,5-a]pyrazin-3-yl)cyclohexanecarboxamide]
[1]; [3]
  IC50: 34 nM
[2]
  IC50: 0.009 µM

## Cc1cc(-c2ccc(C(=O)C3CCCCC3C(=O)Nc3nonc3C(N)=O)c(F)c2)[nH]n1 (single isomer, unassigned) [Example 40, 4-[({(1R,2R or 1S,2S)-2-[2-Fluoro-4-(3-methyl-1H-pyrazol-5-yl)benzoyl]cyclohexyl}carbonyl)amino]-1,2,5-oxadiazole-3-carboxamide]
[1]; [4]
  IC50: 208 nM
[2]
  IC50: 0.07 µM

## Cc1onc(NC(=O)C2CCCCC2C(=O)c2ccc(-c3ccn[nH]3)cc2F)c1C(N)=O (single isomer, unassigned) [Example 41, 3-[({(1R,2R or 1S,2S)-2-[2-Fluoro-4-(1H-pyrazol-5-yl)benzoyl]-cyclohexyl}carbonyl)amino]-5-methyl-1,2-oxazole-4-carboxamide]
[1]; [3]
  IC50: 272 nM
[2]
  IC50: 0.16 µM

## Cn1ncc(NC(=O)[C@@H]2CCCC[C@H]2C(=O)c2ccc(-c3cc[nH]n3)cc2)c1C(N)=O [Example 2, 1-Methyl-4-[({(1R,2R)-2-[4-(1H-pyrazol-3-yl)benzoyl]cyclohexyl}-carbonyl)amino]-1H-pyrazole-5-carboxamide]
[1]; [3]
  IC50: 60 nM
[2]
  IC50: 0.034 µM

## Cc1cc(-c2ccc(C(=O)[C@@H]3CCCC[C@H]3C(=O)Nc3cn[nH]c3)cc2)[nH]n1 [Example 6, (1R,2R)-2-[4-(3-Methyl-1H-pyrazol-5-yl)benzoyl]-N-(1H-pyrazol-4-yl)cyclohexanecarboxamide]
[1]; [3]
  IC50: 380 nM
[2]
  IC50: 0.057 µM

## Cc1cc(-c2ccc(C(=O)[C@@H]3CCCC[C@H]3C(=O)Nc3cnn4c3C(=O)NCC4)cc2)[nH]n1 [Example 7, (1R,2R)-2-[4-(3-Methyl-1H-pyrazol-5-yl)benzoyl]-N-(4-oxo-4,5,6,7-tetrahydropyrazolo[1,5-a]pyrazin-3-yl)cyclohexanecarboxamide]
[1]; [3]
  IC50: 40 nM
[2]
  IC50: 0.0063 µM

## Cn1ncc(NC(=O)[C@@H]2CCCC[C@H]2C(=O)c2ccc(-c3ccn[nH]3)cc2)c1S(C)(=O)=O [Example 8, (1R,2R)—N-[1-Methyl-5-(methylsulfonyl)-1H-pyrazol-4-yl]-2-[4-(1H-pyrazol-5-yl)benzoyl]cyclohexanecarboxamide]
[1]; [3]
  IC50: 35 nM
[2]
  IC50: 0.045 µM

## Cc1cc(-c2ccc(C(=O)[C@@H]3CCCC[C@H]3C(=O)Nc3cn(C)nc3S(N)(=O)=O)cc2)[nH]n1 [Example 10, (1R,2R)-2-[4-(3-Methyl-1H-pyrazol-5-yl)benzoyl]-N-(1-methyl-3-sulfamoyl-1H-pyrazol-4-yl)cyclohexanecarboxamide]
[1]; [3]
  IC50: 340 nM
[2]
  IC50: 0.27 µM

## Cc1cc(-c2ccc(C(=O)[C@@H]3CCCC[C@H]3C(=O)Nc3cnn4c3OCC4)cc2)[nH]n1 [Example 11, (1R,2R)—N-(2,3-Dihydropyrazolo[5,1-b][1,3]oxazol-7-yl)-2-[4-(3-methyl-1H-pyrazol-5-yl)benzoyl]cyclohexanecarboxamide]
[1]; [3]
  IC50: 140 nM
[2]
  IC50: 0.082 µM

## Cc1cc(-c2ccc(C(=O)[C@@H]3CCCC[C@H]3C(=O)Nc3cn[nH]c3C(F)F)cc2)n[nH]1 [Example 15, (1R,2R)—N-[5-(Difluoromethyl)-1H-pyrazol-4-yl]-2-[4-(5-methyl-1H-pyrazol-3-yl)benzoyl]cyclohexanecarboxamide]
[1]; [3]
  IC50: 28 nM
[2]
  IC50: 0.0086 µM

## Cc1cc(-c2ccc(C(=O)[C@@H]3CCCC[C@H]3C(=O)Nc3cnn4c3C(=O)N(C)CC4)cc2)n[nH]1 [Example 16, (1R,2R)—N-(5-Methyl-4-oxo-4,5,6,7-tetrahydropyrazolo[1,5-a]pyrazin-3-yl)-2-[4-(5-methyl-1H-pyrazol-3-yl)benzoyl]cyclohexanecarboxamide]
[1]; [3]
  IC50: 41 nM
[2]
  IC50: 0.022 µM

## CN1CCn2ncc(NC(=O)[C@@H]3CCCC[C@H]3C(=O)c3ccc(-c4cc[nH]n4)cc3)c2C1=O [Example 17, (1R,2R)—N-(5-Methyl-4-oxo-4,5,6,7-tetrahydropyrazolo[1,5-a]pyrazin-3-yl)-2-[4-(1H-pyrazol-3-yl)benzoyl]cyclohexanecarboxamide]
[1]; [3]
  IC50: 18 nM
[2]
  IC50: 0.02 µM

## CCn1ncc(NC(=O)[C@@H]2CCCC[C@H]2C(=O)c2ccc(-c3cc(C)n[nH]3)cc2)c1C(N)=O [Example 19, 1-Ethyl-4-[({(1R,2R)-2-[4-(3-methyl-1H-pyrazol-5-yl)benzoyl]-cyclohexyl}carbonyl)amino]-1H-pyrazole-5-carboxamide]
[1]; [3]
  IC50: 80 nM
[2]
  IC50: 0.029 µM

## CNC(=O)c1c(NC(=O)[C@@H]2CCCC[C@H]2C(=O)c2ccc(-c3cc(C)[nH]n3)cc2)cnn1C [Example 21, N,1-Dimethyl-4-[({(1R,2R)-2-[4-(5-methyl-1H-pyrazol-3-yl)benzoyl]-cyclohexyl}carbonyl)amino]-1H-pyrazole-5-carboxamide]
[1]; [4]
  IC50: 360 nM
[2]
  IC50: 0.23 µM

## Cc1cc(-c2ccc(C(=O)[C@@H]3CCCC[C@H]3C(=O)Nc3c(C(N)=O)n[nH]c3C)cc2)[nH]n1 [Example 22, 5-Methyl-4-[({(1R,2R)-2-[4-(3-methyl-1H-pyrazol-5-yl)benzoyl]-cyclohexyl}carbonyl)amino]-1H-pyrazole-3-carboxamide]
[1]; [3]
  IC50: 740 nM
[2]
  IC50: 0.024 µM

## NC(=O)c1[nH]ncc1NC(=O)[C@@H]1CCCC[C@H]1C(=O)c1ccc(-c2ccn[nH]2)cc1 [Example 23, 4-[({(1R,2R)-2-[4-(1H-Pyrazol-5-yl)benzoyl]cyclohexyl}carbonyl)amino]-1H-pyrazole-5-carboxamide]
[1]; [3]
  IC50: 130 nM
[2]
  IC50: 0.035 µM

## O=C1NCCn2ncc(NC(=O)[C@@H]3CCCC[C@H]3C(=O)c3ccc(-c4ccn[nH]4)cc3)c21 [Example 24, (1R,2R)—N-(4-Oxo-4,5,6,7-tetrahydropyrazolo[1,5-a]pyrazin-3-yl)-2-[4-(1H-pyrazol-5-yl)benzoyl]cyclohexanecarboxamide]
[1]; [3]
  IC50: 18 nM
[2]
  IC50: 0.0081 µM

## CNS(=O)(=O)c1c(NC(=O)[C@@H]2CCCC[C@H]2C(=O)c2ccc(-c3cc(C)n[nH]3)cc2)cnn1C [Example 25, (1R,2R)—N-[1-Methyl-5-(methylsulfamoyl)-1H-pyrazol-4-yl]-2-[4-(3-methyl-1H-pyrazol-5-yl)benzoyl]cyclohexanecarboxamide]
[1]; [3]
  IC50: 210 nM
[2]
  IC50: 0.025 µM
